Measured values reported in ChEMBL document CHEMBL4311972, “Discovery of a benzothiophene-flavonol halting miltefosine and antimonial drug resistance in Leishmania parasites through the application of medicinal chemistry, screening and genomics” (Eur J Med Chem, 2019).

Assays:
CYP1A2 = target: T1, CYP1A2 (Homo sapiens, UniProt P05177); assay: Inhibition of human microsomal CYP1A2 expressed in baculovirus infected insect cells at 10 uM using luciferin-1A2 as substrate preincubated with enzyme/substrate mixture for 30 mins followed by further incubation with NADPH for 30 mins by CYP450 luciferase Glo assay relative to control; format: ADME; details: probe luciferin-1A2
T1 sequence (P05177 whole entry): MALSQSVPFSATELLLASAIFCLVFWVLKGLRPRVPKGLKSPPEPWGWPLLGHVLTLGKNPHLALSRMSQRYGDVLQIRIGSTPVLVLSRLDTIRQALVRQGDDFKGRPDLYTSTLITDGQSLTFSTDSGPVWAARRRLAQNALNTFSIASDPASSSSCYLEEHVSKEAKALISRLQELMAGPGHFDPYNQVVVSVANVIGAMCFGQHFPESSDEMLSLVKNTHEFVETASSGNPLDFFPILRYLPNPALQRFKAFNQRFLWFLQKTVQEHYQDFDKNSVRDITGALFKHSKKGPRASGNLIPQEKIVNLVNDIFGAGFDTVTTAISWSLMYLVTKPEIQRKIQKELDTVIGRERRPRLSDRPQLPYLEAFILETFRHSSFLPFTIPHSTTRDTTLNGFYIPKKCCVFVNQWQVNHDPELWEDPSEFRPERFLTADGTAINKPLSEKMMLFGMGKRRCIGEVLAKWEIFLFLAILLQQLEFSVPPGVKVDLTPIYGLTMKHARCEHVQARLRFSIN

CYP3A4 = CYP3A4 (Homo sapiens, UniProt P08684); assay: Inhibition of human microsomal CYP3A4 expressed in baculovirus infected insect cells at 10 uM using luciferin-IPA as substrate preincubated with enzyme/substrate mixture for 30 mins followed by further incubation with NADPH for 30 mins by CYP450 luciferase Glo assay relative to control; format: ADME; details: probe luciferin-IPA
786-0 = assay: Mitochondrial toxicity in human 786-0 cells at 10 uM incubated with compound for 6 hrs followed by incubation with MitoTracker Red chloromethyl-X-rosamine dye for 45 mins by imaging analysis; format: cell-based; details: 786-0, 6 h
CYP2D6 = CYP2D6 (Homo sapiens, UniProt P10635); assay: Inhibition of human microsomal CYP2D6 expressed in baculovirus infected insect cells at 10 uM using luciferin-ME as substrate preincubated with enzyme/substrate mixture for 30 mins followed by further incubation with NADPH for 30 mins by CYP450 luciferase Glo assay relative to control; format: ADME; details: probe luciferin-ME
[1] = Cytotoxicity against human THP1 cells by MTT assay; format: cell-based, THP-1
CYP2C9 = CYP2C9 (Homo sapiens, UniProt P11712); assay: Inhibition of human microsomal CYP2C9 expressed in baculovirus infected insect cells at 10 uM using luciferin-H as substrate preincubated with enzyme/substrate mixture for 30 mins followed by further incubation with NADPH for 30 mins by CYP450 luciferase Glo assay relative to control; format: ADME; details: probe luciferin-H
[2] = Selectivity index, ratio of CC50 for human THP1 cells to EC50 for Trypanosoma brucei bloodstream form; format: toxicity; details: read-out: Ratio CC50/EC50
Trypanosoma brucei = assay: Antitrypanosomal activity against Trypanosoma brucei bloodstream form assessed as parasite growth inhibition incubated for 72 hrs by resazurin dye based assay; format: functional, organism-based
[3] = Cytotoxicity against human A549 cells assessed as cell growth at […] incubated for 48 hrs by Celltiter-Glo luminescence assay relative to control; format: cell-based; parameters: dose or concentration left out as unconfirmed; details: read-out: Activity
hERG (KCNH2) = hERG (KCNH2) (Homo sapiens, UniProt Q12809); assay: Inhibition of human ERG at 10 uM incubated for 2 hrs by fluorescence polarization assay relative to control
CYP2C19 = CYP2C19 (Homo sapiens, UniProt P33261); assay: Inhibition of human microsomal CYP2C19 expressed in baculovirus infected insect cells at 10 uM using luciferin-H EGE as substrate preincubated with enzyme/substrate mixture for 30 mins followed by further incubation with NADPH for 30 mins by CYP450 luciferase Glo assay relative to control; format: ADME; details: probe luciferin-H EGE
Leishmania infantum = assay: Antileishmanial activity against luciferase expressing intracellular amastigote stage of Leishmania infantum infected in human THP1 cells assessed as parasite growth inhibition measured after 48 to 72 hrs by steady-glo luciferase assay; format: functional, organism-based
[4] = Trypanosoma brucei, 72 h, read-out: EC50

Sequence of CYP2C19 (P33261 whole entry): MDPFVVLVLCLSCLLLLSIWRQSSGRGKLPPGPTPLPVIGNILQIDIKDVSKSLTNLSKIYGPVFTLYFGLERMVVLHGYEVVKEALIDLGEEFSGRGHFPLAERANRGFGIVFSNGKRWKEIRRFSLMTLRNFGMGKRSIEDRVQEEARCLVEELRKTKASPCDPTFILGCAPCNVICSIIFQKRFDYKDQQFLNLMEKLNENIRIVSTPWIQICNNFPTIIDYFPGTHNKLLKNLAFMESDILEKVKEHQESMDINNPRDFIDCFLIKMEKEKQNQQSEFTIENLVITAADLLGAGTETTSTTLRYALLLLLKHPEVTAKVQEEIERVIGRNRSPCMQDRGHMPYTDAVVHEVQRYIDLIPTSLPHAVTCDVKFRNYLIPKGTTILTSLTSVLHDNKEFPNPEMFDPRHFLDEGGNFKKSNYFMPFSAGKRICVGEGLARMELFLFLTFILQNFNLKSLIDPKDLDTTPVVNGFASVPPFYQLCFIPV
Sequence of CYP2C9 (P11712 whole entry): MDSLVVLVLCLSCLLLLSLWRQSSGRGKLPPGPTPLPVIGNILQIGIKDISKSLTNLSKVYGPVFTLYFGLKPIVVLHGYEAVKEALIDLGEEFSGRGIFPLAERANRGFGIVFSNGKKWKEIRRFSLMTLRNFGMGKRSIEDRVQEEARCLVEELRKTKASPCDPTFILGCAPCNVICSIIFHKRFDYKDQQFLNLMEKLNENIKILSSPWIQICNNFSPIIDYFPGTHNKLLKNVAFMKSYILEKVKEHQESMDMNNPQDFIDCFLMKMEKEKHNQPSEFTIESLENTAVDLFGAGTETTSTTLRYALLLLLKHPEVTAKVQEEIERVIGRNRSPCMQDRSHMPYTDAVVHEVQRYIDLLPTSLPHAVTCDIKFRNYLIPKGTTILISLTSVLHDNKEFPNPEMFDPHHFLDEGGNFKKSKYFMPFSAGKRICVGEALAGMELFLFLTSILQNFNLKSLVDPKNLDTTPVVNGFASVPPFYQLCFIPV
Sequence of CYP2D6 (P10635 whole entry): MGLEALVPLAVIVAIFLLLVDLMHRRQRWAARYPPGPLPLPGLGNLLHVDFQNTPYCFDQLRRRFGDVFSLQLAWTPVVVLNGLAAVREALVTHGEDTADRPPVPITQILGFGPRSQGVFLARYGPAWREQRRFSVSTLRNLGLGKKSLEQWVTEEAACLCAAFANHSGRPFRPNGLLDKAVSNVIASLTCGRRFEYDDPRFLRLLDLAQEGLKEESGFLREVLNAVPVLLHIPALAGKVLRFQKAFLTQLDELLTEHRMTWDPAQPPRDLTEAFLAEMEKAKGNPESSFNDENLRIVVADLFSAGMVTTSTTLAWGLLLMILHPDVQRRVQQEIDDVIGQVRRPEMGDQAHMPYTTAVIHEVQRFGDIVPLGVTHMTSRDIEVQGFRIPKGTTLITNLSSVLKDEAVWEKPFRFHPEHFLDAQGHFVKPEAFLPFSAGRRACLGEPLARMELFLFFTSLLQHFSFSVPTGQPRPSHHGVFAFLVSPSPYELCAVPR
Sequence of hERG (KCNH2) (Q12809 whole entry): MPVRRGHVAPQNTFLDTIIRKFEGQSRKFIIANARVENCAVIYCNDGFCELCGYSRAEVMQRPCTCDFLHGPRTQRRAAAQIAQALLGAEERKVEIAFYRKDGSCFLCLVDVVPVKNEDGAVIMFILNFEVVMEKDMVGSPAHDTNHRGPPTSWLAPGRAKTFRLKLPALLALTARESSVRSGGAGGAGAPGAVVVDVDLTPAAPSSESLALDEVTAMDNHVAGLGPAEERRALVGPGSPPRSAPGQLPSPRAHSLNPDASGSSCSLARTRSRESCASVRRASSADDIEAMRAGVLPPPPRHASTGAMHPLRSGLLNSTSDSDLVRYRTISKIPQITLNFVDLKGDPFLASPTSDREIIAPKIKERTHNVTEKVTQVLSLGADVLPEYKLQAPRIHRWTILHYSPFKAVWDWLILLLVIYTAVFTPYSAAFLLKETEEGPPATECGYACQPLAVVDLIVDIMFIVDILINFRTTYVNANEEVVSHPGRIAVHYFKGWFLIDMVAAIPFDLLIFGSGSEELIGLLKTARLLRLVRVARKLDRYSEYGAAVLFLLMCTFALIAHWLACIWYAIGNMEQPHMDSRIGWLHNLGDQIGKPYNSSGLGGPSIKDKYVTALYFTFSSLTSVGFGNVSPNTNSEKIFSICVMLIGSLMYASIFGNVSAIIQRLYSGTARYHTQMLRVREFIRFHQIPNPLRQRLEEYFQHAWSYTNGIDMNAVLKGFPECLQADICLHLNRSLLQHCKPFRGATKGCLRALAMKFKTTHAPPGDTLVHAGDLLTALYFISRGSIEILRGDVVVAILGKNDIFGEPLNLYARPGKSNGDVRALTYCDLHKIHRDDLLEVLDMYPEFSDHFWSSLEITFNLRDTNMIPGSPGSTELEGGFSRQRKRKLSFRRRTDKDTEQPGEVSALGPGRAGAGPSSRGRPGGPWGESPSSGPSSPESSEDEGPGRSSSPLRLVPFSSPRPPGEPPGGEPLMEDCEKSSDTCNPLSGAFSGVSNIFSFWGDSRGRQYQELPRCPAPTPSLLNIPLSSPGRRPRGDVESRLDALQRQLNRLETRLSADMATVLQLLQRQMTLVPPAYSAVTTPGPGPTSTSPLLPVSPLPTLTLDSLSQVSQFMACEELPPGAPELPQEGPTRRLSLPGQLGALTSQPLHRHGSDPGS
Sequence of CYP3A4 (P08684 whole entry): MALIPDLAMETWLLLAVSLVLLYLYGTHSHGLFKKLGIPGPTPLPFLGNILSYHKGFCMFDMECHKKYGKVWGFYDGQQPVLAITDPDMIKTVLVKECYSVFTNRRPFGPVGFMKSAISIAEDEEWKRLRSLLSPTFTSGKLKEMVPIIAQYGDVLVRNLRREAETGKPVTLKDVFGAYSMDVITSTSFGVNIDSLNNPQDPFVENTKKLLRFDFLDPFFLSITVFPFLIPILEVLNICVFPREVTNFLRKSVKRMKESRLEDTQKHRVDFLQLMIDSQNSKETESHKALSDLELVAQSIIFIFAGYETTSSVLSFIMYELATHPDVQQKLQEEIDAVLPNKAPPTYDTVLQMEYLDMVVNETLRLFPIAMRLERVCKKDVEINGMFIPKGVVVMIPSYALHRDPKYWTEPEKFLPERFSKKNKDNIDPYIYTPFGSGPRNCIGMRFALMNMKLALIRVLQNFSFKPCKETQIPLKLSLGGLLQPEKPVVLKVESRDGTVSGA

COc1ccc2c(=O)c(O)c(-c3ccc4c(c3)OCO4)oc2c1
inhibition at 0.5 h, 10 µM (CYP1A2): 101%
inhibition at 0.5 h, 10 µM (CYP3A4): 55.5%
Activity (786-0): 6.41%
inhibition at 0.5 h, 10 µM (CYP2D6): 105%
CC50 [1]: > 100 µM
inhibition at 0.5 h, 10 µM (CYP2C9): 72.7%
selectivity ratio [2]: 250
EC50 (Trypanosoma brucei; [4]): 0.4 µM
viability at 48 h [3]: 43.2%
inhibition at 2 h, 10 µM (hERG (KCNH2)): 9.49%
inhibition at 0.5 h, 10 µM (CYP2C19): 80.3%

Cc1ccc2oc(-c3ccc(C)s3)c(O)c(=O)c2c1
inhibition at 0.5 h, 10 µM (CYP1A2): 96.5%
inhibition at 0.5 h, 10 µM (CYP3A4): 10.4%
Activity (786-0): -15.83%
inhibition at 0.5 h, 10 µM (CYP2D6): 22.6%
CC50 [1]: 25 to 50 µM
inhibition at 0.5 h, 10 µM (CYP2C9): 6.64%
selectivity ratio [2]: 7
EC50 (Trypanosoma brucei; [4]): 3.3 µM
viability at 48 h [3]: 30.9%
inhibition at 2 h, 10 µM (hERG (KCNH2)): 34.3%
inhibition at 0.5 h, 10 µM (CYP2C19): 19.1%

Cc1csc(-c2oc3ccc(O)cc3c(=O)c2O)c1
inhibition at 0.5 h, 10 µM (CYP1A2): 96.1%
inhibition at 0.5 h, 10 µM (CYP3A4): 17.6%
Activity (786-0): 4.24%
inhibition at 0.5 h, 10 µM (CYP2D6): 40.1%
CC50 [1]: 10 to 25 µM
inhibition at 0.5 h, 10 µM (CYP2C9): 40.1%
selectivity ratio [2]: 2
EC50 (Trypanosoma brucei; [4]): 4.9 µM
viability at 48 h [3]: 93.8%
inhibition at 2 h, 10 µM (hERG (KCNH2)): 16.1%
inhibition at 0.5 h, 10 µM (CYP2C19): 35.2%

O=c1c(O)c(-c2cccc(-c3ccc(O)c(O)c3)c2)oc2ccc(O)cc12
inhibition at 0.5 h, 10 µM (CYP1A2): 51.9%
inhibition at 0.5 h, 10 µM (CYP3A4): 21.5%
Activity (786-0): -1.03%
inhibition at 0.5 h, 10 µM (CYP2D6): 34%
CC50 [1]: 25 to 50 µM
inhibition at 0.5 h, 10 µM (CYP2C9): -22.6%
selectivity ratio [2]: 15
EC50 (Trypanosoma brucei; [4]): 1.7 µM
viability at 48 h [3]: 32.5%
inhibition at 2 h, 10 µM (hERG (KCNH2)): 4.2%
inhibition at 0.5 h, 10 µM (CYP2C19): 31.5%

COc1ccc2oc(-c3cccc(-c4ccc5c(c4)OCO5)c3)c(O)c(=O)c2c1
inhibition at 0.5 h, 10 µM (CYP1A2): 61.8%
inhibition at 0.5 h, 10 µM (CYP3A4): 44.6%
Activity (786-0): -1.63%
inhibition at 0.5 h, 10 µM (CYP2D6): 21.9%
CC50 [1]: 25 to 50 µM
inhibition at 0.5 h, 10 µM (CYP2C9): 25.8%
selectivity ratio [2]: 6
EC50 (Trypanosoma brucei; [4]): 3.9 µM
viability at 48 h [3]: 30.5%
inhibition at 2 h, 10 µM (hERG (KCNH2)): 0.34%
inhibition at 0.5 h, 10 µM (CYP2C19): 24.5%

Cc1csc(-c2oc3ccc(C)cc3c(=O)c2O)c1
inhibition at 0.5 h, 10 µM (CYP1A2): 98.8%
inhibition at 0.5 h, 10 µM (CYP3A4): 23.5%
Activity (786-0): -13.79%
inhibition at 0.5 h, 10 µM (CYP2D6): 25.3%
CC50 [1]: > 100 µM
inhibition at 0.5 h, 10 µM (CYP2C9): 35.1%
selectivity ratio [2]: 36
EC50 (Trypanosoma brucei; [4]): 2.8 µM
viability at 48 h [3]: 15.3%
inhibition at 2 h, 10 µM (hERG (KCNH2)): 13.2%
inhibition at 0.5 h, 10 µM (CYP2C19): 26.2%

COc1ccc2oc(-c3c[nH]c4ccccc34)c(O)c(=O)c2c1
inhibition at 0.5 h, 10 µM (CYP1A2): 101%
inhibition at 0.5 h, 10 µM (CYP3A4): 11%
Activity (786-0): -12.53%
inhibition at 0.5 h, 10 µM (CYP2D6): -8%
CC50 [1]: 12.5 to 25 µM
inhibition at 0.5 h, 10 µM (CYP2C9): 28.8%
selectivity ratio [2]: 8
EC50 (Trypanosoma brucei; [4]): 1.4 µM
viability at 48 h [3]: 20.9%
inhibition at 2 h, 10 µM (hERG (KCNH2)): 41.2%
inhibition at 0.5 h, 10 µM (CYP2C19): 32.6%

COc1ccc2c(=O)c(O)c(-c3sccc3C)oc2c1
inhibition at 0.5 h, 10 µM (CYP1A2): 108%
inhibition at 0.5 h, 10 µM (CYP3A4): 79.4%
Activity (786-0): -8.17%
inhibition at 0.5 h, 10 µM (CYP2D6): 9.1%
CC50 [1]: 12.5 to 25 µM
inhibition at 0.5 h, 10 µM (CYP2C9): 45.5%
selectivity ratio [2]: 3
EC50 (Trypanosoma brucei; [4]): 4.9 µM
viability at 48 h [3]: 65%
inhibition at 2 h, 10 µM (hERG (KCNH2)): -3.84%
inhibition at 0.5 h, 10 µM (CYP2C19): 35.2%

O=c1c(O)c(-c2c[nH]c3ccccc23)oc2ccc(O)cc12
inhibition at 0.5 h, 10 µM (CYP1A2): 101%
inhibition at 0.5 h, 10 µM (CYP3A4): 18.7%
Activity (786-0): 17.38%
inhibition at 0.5 h, 10 µM (CYP2D6): -0.42%
CC50 [1]: 50 to 100 µM
inhibition at 0.5 h, 10 µM (CYP2C9): 40.2%
selectivity ratio [2]: 16
EC50 (Trypanosoma brucei; [4]): 3.1 µM
viability at 48 h [3]: 5.87%
inhibition at 2 h, 10 µM (hERG (KCNH2)): 53.2%
inhibition at 0.5 h, 10 µM (CYP2C19): 47.9%

Cc1ccc2c(=O)c(O)c(-c3csc4ccccc34)oc2c1
inhibition at 0.5 h, 10 µM (CYP1A2): 94.2%
inhibition at 0.5 h, 10 µM (CYP3A4): 13.2%
Activity (786-0): -19.4%
inhibition at 0.5 h, 10 µM (CYP2D6): 28.1%
CC50 [1]: 50 to 100 µM
inhibition at 0.5 h, 10 µM (CYP2C9): 37%
EC50 (Trypanosoma brucei; [4]): 4.5 µM
viability at 48 h [3]: 50.1%
EC50 (Leishmania infantum): Not Active
inhibition at 2 h, 10 µM (hERG (KCNH2)): -15%
inhibition at 0.5 h, 10 µM (CYP2C19): 39.1%

CCCOc1c(-c2csc3ccccc23)oc2ccc(OC)cc2c1=O
inhibition at 0.5 h, 10 µM (CYP1A2): 57.2%
inhibition at 0.5 h, 10 µM (CYP3A4): 48.2%
Activity (786-0): 95.63%
inhibition at 0.5 h, 10 µM (CYP2D6): 66.5%
CC50 [1]: 12.5 to 25 µM
inhibition at 0.5 h, 10 µM (CYP2C9): 19.6%
EC50 (Trypanosoma brucei): Not Active
viability at 48 h [3]: 60.1%
EC50 (Leishmania infantum): Not Active
inhibition at 2 h, 10 µM (hERG (KCNH2)): 33.9%
inhibition at 0.5 h, 10 µM (CYP2C19): 31.7%

CCOc1c(-c2csc3ccccc23)oc2ccc(OC)cc2c1=O
inhibition at 0.5 h, 10 µM (CYP1A2): 92.4%
inhibition at 0.5 h, 10 µM (CYP3A4): 46.9%
Activity (786-0): -27.16%
inhibition at 0.5 h, 10 µM (CYP2D6): 50.2%
CC50 [1]: 25 to 50 µM
inhibition at 0.5 h, 10 µM (CYP2C9): 14.1%
EC50 (Trypanosoma brucei): Not Active
viability at 48 h [3]: 120%
EC50 (Leishmania infantum): Not Active
inhibition at 2 h, 10 µM (hERG (KCNH2)): 11.8%
inhibition at 0.5 h, 10 µM (CYP2C19): 54.5%

COc1ccc2oc(-c3csc4ccccc34)c(OC(=O)N(C)C)c(=O)c2c1
inhibition at 0.5 h, 10 µM (CYP1A2): 61.1%
inhibition at 0.5 h, 10 µM (CYP3A4): 47.4%
Activity (786-0): -42.09%
inhibition at 0.5 h, 10 µM (CYP2D6): 20.3%
CC50 [1]: 12.5 to 25 µM
inhibition at 0.5 h, 10 µM (CYP2C9): -6.48%
EC50 (Trypanosoma brucei): Not Active
viability at 48 h [3]: 104%
EC50 (Leishmania infantum): Not Active
inhibition at 2 h, 10 µM (hERG (KCNH2)): -17.9%
inhibition at 0.5 h, 10 µM (CYP2C19): 26.3%
